Laboratory results: US6858638B2, “Substituted indazoles, compositions containing them, method of production and use” (Aventis Pharma S.A., priority 2002, dated 2005)

How the values were obtained:
Assay type in all cases: biochemical
[1] = target: T1, Aurora2 kinase (Homo sapiens, UniProt O14965); test: Aurora2 kinase radioactivity scintillation assay using nickel chelate (NuMA substrate); settings: 10 μM; read-out: Aurora2 % inhib at 10 μM
T1 construct: A complete recombinant Aurora2 enzyme; His tag (N); made in house; host or cells: E. coli
T1 sequence (O14965 1-403): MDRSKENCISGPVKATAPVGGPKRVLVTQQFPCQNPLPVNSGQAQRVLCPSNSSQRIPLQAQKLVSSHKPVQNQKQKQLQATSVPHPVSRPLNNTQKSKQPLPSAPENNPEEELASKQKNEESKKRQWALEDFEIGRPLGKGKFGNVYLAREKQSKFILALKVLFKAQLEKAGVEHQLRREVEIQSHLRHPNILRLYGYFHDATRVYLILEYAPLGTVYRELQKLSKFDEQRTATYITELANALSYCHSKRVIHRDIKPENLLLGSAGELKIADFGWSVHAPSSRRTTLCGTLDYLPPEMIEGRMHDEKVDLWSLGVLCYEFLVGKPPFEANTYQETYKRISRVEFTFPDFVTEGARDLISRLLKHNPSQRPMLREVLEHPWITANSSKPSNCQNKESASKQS
In short: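 His-tagged full-length Aurora2 (0.02 μM, E. coli) phosphorylating His-tagged NuMA C-terminal fragment (0.5 μM) with 1 μM ATP plus [33P]-ATP, 30 min at 37 °C, pH 7.5 Tris buffer with MgCl2. Nickel-chelate scintillation read; percent inhibition versus no-compound control.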

[2] = target: T2, human FAK (Homo sapiens, UniProt Q05397); test: FAK autophosphorylation inhibition, time resolved fluorescence (HTRF) assay; settings: for inhibition at 10 µM: 10 μM (values without asterisk), read-out: FAK % inhib at 10 μM; for inhibition at 30 µM: 30 μM (values marked *), read-out: FAK % inhib at 30* μM
T2 construct: The complete cDNA of human FAK; made in house; host or cells: baculovirus expression system (vector pFastBac HTc)
In short: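 His-tagged full-length human FAK from baculovirus (6.6 µg/ml) self-phosphorylates with 15 µM ATP in HEPES pH 7.2, MgCl2, vanadate, 1 h at 37 °C. HTRF detection (Eu-anti-phosphotyrosine / XL665-anti-His), 665/620 nm ratio; % inhibition vs untreated control, duplicate mean.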

[3] = target: T3, human KDR enzyme (Homo sapiens, UniProt P35968); test: KDR substrate (PLCγ) phosphorylation, scintillation assay; settings: 10 μM; read-out: KDR % inhib at 10 μM
T3 construct: The cytoplasmic domain of the human KDR enzyme; GST; made in house; host or cells: SF21 insect cells (baculovirus)
In short: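 GST-fused human KDR cytoplasmic domain from SF21 cells (about 60% pure, 100 ng) phosphorylated 2 μg of GST-PLCγ SH2-SH3 fragment. The trigger solution held γ33P-ATP with 2 μM cold ATP, in MOPS buffer pH 7.2 with Mg2+, Mn2+, vanadate and NaF. Reactions ran 1 h at 37 °C, were stopped with EDTA and counted by scintillation; results are % inhibition versus the no-compound control.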

T2 sequence (Q05397 whole entry): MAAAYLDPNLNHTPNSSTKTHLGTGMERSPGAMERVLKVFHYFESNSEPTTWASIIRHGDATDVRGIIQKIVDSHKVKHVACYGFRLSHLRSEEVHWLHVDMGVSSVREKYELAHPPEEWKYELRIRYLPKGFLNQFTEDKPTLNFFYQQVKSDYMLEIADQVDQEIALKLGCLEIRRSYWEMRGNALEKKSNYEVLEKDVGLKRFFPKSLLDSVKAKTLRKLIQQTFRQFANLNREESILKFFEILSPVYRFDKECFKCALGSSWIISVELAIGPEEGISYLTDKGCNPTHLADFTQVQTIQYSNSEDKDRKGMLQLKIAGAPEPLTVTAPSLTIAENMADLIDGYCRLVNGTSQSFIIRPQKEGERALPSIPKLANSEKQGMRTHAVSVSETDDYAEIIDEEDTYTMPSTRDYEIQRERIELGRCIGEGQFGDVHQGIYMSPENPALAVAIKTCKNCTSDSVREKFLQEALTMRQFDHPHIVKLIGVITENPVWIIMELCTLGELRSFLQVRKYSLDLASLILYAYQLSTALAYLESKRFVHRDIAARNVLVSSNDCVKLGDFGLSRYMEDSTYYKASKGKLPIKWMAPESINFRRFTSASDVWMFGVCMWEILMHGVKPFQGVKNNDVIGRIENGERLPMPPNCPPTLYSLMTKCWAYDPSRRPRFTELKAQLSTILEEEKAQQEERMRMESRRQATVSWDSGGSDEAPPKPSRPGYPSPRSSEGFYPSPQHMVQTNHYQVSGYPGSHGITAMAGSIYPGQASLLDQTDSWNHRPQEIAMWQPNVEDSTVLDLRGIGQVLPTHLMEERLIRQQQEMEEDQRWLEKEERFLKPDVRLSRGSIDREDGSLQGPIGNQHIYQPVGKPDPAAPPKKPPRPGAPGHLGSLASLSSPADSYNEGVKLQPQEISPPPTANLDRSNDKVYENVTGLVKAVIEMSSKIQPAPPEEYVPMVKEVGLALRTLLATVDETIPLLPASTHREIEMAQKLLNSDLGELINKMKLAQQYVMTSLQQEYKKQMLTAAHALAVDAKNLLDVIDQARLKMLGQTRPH
T3 sequence (P35968 786-1356 limits assumed): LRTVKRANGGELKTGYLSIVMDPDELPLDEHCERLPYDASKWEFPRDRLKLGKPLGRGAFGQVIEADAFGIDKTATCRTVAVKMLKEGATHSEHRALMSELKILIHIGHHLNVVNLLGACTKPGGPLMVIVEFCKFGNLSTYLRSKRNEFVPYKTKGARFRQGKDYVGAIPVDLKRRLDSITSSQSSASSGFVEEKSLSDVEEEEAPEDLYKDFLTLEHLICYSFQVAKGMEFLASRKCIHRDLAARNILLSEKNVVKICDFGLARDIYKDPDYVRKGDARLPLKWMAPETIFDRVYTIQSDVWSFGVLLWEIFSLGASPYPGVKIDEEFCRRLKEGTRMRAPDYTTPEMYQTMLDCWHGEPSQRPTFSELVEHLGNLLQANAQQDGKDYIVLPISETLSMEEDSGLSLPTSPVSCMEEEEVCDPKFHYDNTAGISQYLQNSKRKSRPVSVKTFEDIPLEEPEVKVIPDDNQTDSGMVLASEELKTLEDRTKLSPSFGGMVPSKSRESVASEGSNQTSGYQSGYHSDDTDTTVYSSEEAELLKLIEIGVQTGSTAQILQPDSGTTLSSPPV

Row | Compound | inhibition at 10 µM [1] [%] | inhibition at 10 µM [2] [%] | inhibition at 10 µM [3] [%] | inhibition at 30 µM [2] [%]
1 | Cc1ccccc1S(=O)(=O)Nc1ccc2[nH]nc(-c3ccccc3)c2c1 [Example 132, 2-Methyl-N-(3-phenyl-1H-indazol-5-yl)-benzenesulfonamide] | 100 | 51 | 96 | –
2 | CS(=O)(=O)c1ccccc1S(=O)(=O)Nc1ccc2[nH]nc(-c3cc4ccccc4[nH]3)c2c1 [Example 61, N-[3-(1H-Indol-2-yl)-1H-indazol-5-yl]-2-methylsulfonylbenzenesulfonamide] | 100 | 99 | 98 | –
3 | O=S(=O)(Nc1ccc2[nH]nc(-c3ccccc3)c2c1)c1ccc(F)cc1 [Example 117, 4-Fluoro-N-(3-phenyl-1H-indazol-5-yl)-benzenesulfonamide] | 100 | 53 | 93 | –
4 | CS(=O)(=O)c1ccccc1S(=O)(=O)Nc1ccc2[nH]nc(-c3cccc(C#N)c3)c2c1 [Example 71, N-[3-(3-Cyanophenyl)-1H-indazol-5-yl]-2-methylsulfonylbenzenesulfonamide] | 93 | 97 | 83 | –
5 | O=C(O)c1cccc(S(=O)(=O)Nc2ccc3[nH]nc(-c4ccccc4)c3c2)c1 [Example 133, 3-(3-Phenyl-1H-indazol-5-ylsulfamoyl)benzoic acid] | 67 | 12 | 96 | –
6 | CNc1n[nH]c2ccc(NS(=O)(=O)c3ccccc3S(C)(=O)=O)cc12 [Example 37, N-(3-Methylamino-1H-indazol-5-yl)-2-methylsulfonylbenzenesulfonamide] | 36 | 67 | 8 | –
7 | COc1ccc(OC)c(S(=O)(=O)Nc2ccc3[nH]nc(-c4ccccc4)c3c2)c1 [Example 131, 2,5-Dimethoxy-N-(3-phenyl-1H-indazol-5-yl)-benzenesulfonamide] | 97 | 64 | 95 | –
8 | CS(=O)(=O)c1ccccc1S(=O)(=O)Nc1ccc2[nH]nc(-c3ccc(N)cc3)c2c1 [Example 70, N-[3-(4-Aminophenyl)-1H-indazol-5-yl]-2-methylsulfonylbenzenesulfonamide] | 98 | 99 | 71 | –
9 | CS(=O)(=O)c1ccccc1S(=O)(=O)Nc1ccc2[nH]nc(-c3ccoc3)c2c1 [Example 52, N-(3-Furan-3-yl-1H-indazol-5-yl)-2-methylsulfonylbenzenesulfonamide] | 84 | 93 | 49 | –
10 | O=S(=O)(Nc1ccc2[nH]nc(-c3cc4ccccc4[nH]3)c2c1)c1ccccc1OC(F)(F)F [Example 84, N-[3-(1H-Indol-2-yl)-1H-indazol-5-yl]-2-trifluoromethoxybenzenesulfonamide] | 100 | 90 | 98 | –
11 | O=S(=O)(Nc1ccc2[nH]nc(-c3ccccc3)c2c1)c1cccc(F)c1 [Example 6, 3-Fluoro-N-(3-phenyl-1H-indazol-5-yl)benzenesulfonamide] | 95 | 82 | 85 | –
12 | CS(=O)(=O)c1ccccc1S(=O)(=O)Nc1ccc2[nH]nc(-c3cc4ccccc4s3)c2c1 [Example 65, N-(3-Benzo[b]thiophen-2-yl-1H-indazol-5-yl)-2-methylsulfonylbenzenesulfonamide] | 100 | 86 | 73 | –
13 | CN(C)c1ccc(-c2n[nH]c3ccc(NS(=O)(=O)c4ccccc4S(C)(=O)=O)cc23)cc1 [Example 63, N-[3-(4-Dimethylaminophenyl)-1H-indazol-5-yl]-2-methylsulfonylbenzenesulfonamide] | 100 | 94 | 0 | –
14 | Nc1ccc(S(=O)(=O)Nc2ccc3[nH]nc(-c4ccccc4)c3c2)cc1 [Example 94, 4-Amino-N-(3-phenyl-1H-indazol-5-yl)benzenesulfonamide] | 65 | 36 | 88 | –
15 | CS(=O)(=O)c1ccccc1S(=O)(=O)Nc1ccc2[nH]nc(-c3ccccc3)c2c1 [Example 7, 2-Methylsulfonyl-N-(3-phenyl-1H-indazol-5-yl)benzenesulfonamide] | 97 | 89 | 70 | –
16 | O=S(=O)(Nc1ccc2[nH]nc(-c3ccccc3)c2c1)c1cc(F)cc(F)c1 [Example 158, 3,5-Difluoro-N-(3-phenyl-1H-indazol-5-yl)-benzenesulfonamide] | 100 | 95 | 96 | –
17 | COC(=O)/C=C/c1n[nH]c2ccc(NS(=O)(=O)c3ccccc3S(C)(=O)=O)cc12 [Example 79, Methyl (E)-3-[5(2-methylsulfonylbenzenesulfonylamino)-1H-indazol-3-yl]-acrylate] | 95 | 98 | 50 | –

Second part, the compound after the results:

Row | inhibition at 10 µM [1] [%] | inhibition at 10 µM [2] [%] | inhibition at 10 µM [3] [%] | inhibition at 30 µM [2] [%] | Compound
18 | 100 | 75 | 93 | – | O=S(=O)(Nc1ccc2[nH]nc(-c3ccccc3)c2c1)c1ccccc1 [Example 112, N-(3-Phenyl-1H-indazol-5-yl)benzenesulfonamide]
19 | 70 | 27 | 66 | – | Cc1cc2[nH]nc(-c3ccccc3)c2cc1NS(=O)(=O)c1ccccc1S(C)(=O)=O [Example 92, 2-Methylsulfonyl-N-(6-methyl-3-phenyl-1H-indazol-5-yl)-benzenesulfonamide]
20 | 92 | 97 | 87 | – | COc1ccc(-c2n[nH]c3ccc(NS(=O)(=O)c4ccccc4S(C)(=O)=O)cc23)cc1 [Example 32, N-[3-(4-Methoxyphenyl)-1H-indazol-5-yl]-2-methylsulfonylbenzenesulfonamide]
21 | 70 | 55 | 22 | – | Nc1n[nH]c2ccc(NS(=O)(=O)c3c(F)cccc3F)cc12 [Example 40, N-(3-Amino-1H-indazol-5-yl)-2,6-difluorobenzenesulfonamide]
22 | 100 | 99 | 74 | – | CS(=O)(=O)c1ccccc1S(=O)(=O)Nc1ccc2[nH]nc(-c3cccc(N)c3)c2c1 [Example 62, N-[3-(3-Aminophenyl)-1H-indazol-5-yl]-2-methylsulfonylbenzenesulfonamide]
23 | 100 | 50 | 91 | – | O=S(=O)(Nc1ccc2[nH]nc(-c3ccccc3)c2c1)c1ccc(Cl)s1 [Example 135, 5-Chloro-N-(3-phenyl-1H-indazol-5-yl)thiophene-2-sulfonamide]
24 | 90 | – | 20 | 66 | Cc1n[nH]c2ccc(NS(=O)(=O)c3ccccc3S(C)(=O)=O)cc12 [Example 10, 2-Methylsulfonyl-N-(3-methyl-1H-indazol-5-yl)benzenesulfonamide]
25 | 89 | 94 | 68 | – | CS(=O)(=O)c1ccccc1S(=O)(=O)Nc1ccc2[nH]nc(-c3ccc(F)cc3)c2c1 [Example 33, N-[3-(4-Fluorophenyl)-1H-indazol-5-yl]-2-methylsulfonylbenzenesulfonamide]
26 | 50 | 100 | 25 | – | Nc1n[nH]c2ccc(NS(=O)(=O)c3cc(F)cc(F)c3)cc12 [Example 42, N-(3-Amino-1H-indazol-5-yl)-3,5-difluorobenzenesulfonamide]
27 | 99 | 47 | 92 | – | Cc1cccc(S(=O)(=O)Nc2ccc3[nH]nc(-c4ccccc4)c3c2)c1 [Example 138, 3-Methyl-N-(3-phenyl-1H-indazol-5-yl)-benzenesulfonamide]
28 | 86 | – | 7 | 70 | CS(=O)(=O)c1ccccc1S(=O)(=O)Nc1ccc2[nH]nc(Cl)c2c1 [Example 1, N-(3-Chloro-1H-indazol-5-yl)-2-methylsulfonylbenzenesulfonamide]
